From US7135466B2 (Kirin Beer Kabushiki Kaisha, priority 1999, dated 2006)
Read-outs that look alike come from different tables or passages of the source. Blank lines part the entries; values can stand above or below the compound they belong to.

Columns and labels:
PDGF-Ra = molecular target: T1, PDGF-Ra (Homo sapiens, UniProt P16234); assay: Inhibitory activity against PDGF-Ra phosphorylation by PDGF-AA stimulation using G292; assay type: cell-based; conditions: for IC50: > means inhibition at indicated concentration not more than 50%, < and << not less than 50%, read-out: PDGF (E) IC50; for inhibition at 0.1 µM: G292, figure within parentheses in >100( ), at 100 nM, read-out: PDGF (E) inhibition (%) at 100 nM
T1 construct: host or cells: G-292 human osteosarcoma cells
T1 sequence (P16234 24-1089): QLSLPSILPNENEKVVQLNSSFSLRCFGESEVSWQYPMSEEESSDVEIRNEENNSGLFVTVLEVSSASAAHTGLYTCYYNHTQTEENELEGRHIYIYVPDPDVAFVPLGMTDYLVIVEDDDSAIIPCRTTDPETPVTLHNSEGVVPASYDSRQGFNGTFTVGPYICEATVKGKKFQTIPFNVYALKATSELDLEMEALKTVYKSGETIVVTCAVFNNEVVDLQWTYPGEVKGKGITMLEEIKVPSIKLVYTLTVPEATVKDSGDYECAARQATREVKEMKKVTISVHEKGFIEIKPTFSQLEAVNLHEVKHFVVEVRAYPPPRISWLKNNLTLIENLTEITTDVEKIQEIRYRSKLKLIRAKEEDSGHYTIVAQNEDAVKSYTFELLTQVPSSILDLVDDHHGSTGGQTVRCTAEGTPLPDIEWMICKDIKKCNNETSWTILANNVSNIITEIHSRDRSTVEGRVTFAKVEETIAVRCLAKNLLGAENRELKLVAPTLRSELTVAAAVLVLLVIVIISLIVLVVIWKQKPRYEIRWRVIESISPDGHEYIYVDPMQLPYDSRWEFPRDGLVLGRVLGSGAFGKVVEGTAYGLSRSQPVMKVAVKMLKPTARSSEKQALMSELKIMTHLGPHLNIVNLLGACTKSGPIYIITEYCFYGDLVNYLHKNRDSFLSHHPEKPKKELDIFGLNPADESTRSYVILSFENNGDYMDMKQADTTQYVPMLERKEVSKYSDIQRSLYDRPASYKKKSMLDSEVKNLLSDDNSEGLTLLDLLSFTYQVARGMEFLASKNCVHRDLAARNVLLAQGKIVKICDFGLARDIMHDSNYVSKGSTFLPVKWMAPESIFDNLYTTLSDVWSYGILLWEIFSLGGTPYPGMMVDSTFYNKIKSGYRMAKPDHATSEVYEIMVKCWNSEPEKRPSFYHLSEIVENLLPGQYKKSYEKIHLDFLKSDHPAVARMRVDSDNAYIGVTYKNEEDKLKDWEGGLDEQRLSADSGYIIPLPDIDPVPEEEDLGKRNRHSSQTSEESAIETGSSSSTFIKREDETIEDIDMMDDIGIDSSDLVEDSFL
Summary of the method: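 Cells seeded in low-serum medium are exposed to test compound for one hour, then PDGF-AA (50 ng/ml) triggers receptor phosphorylation for 5 min at 37 °C. Phospho-PDGF-Ra in solubilized cells is quantified by anti-phosphotyrosine capture ELISA at 450 nm.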

c-kit = molecular target: T2, c-kit (Homo sapiens, UniProt P10721); assay: Inhibitory activity against c-kit autophosphorylation (MO7e cells, h-SCF); assay type: cell-based; conditions: for IC50: MO7e cells, read-out: c-kit IC50; for inhibition at 1 µM: Mo7e, at 1000 nM
T2 construct: MO7e (human megakaryocytic leukemia cell line) which had been arrested for 20 hr; endogenous in cells; host or cells: MO7e human megakaryocytic leukemia cell line
T2 sequence (P10721 26-976): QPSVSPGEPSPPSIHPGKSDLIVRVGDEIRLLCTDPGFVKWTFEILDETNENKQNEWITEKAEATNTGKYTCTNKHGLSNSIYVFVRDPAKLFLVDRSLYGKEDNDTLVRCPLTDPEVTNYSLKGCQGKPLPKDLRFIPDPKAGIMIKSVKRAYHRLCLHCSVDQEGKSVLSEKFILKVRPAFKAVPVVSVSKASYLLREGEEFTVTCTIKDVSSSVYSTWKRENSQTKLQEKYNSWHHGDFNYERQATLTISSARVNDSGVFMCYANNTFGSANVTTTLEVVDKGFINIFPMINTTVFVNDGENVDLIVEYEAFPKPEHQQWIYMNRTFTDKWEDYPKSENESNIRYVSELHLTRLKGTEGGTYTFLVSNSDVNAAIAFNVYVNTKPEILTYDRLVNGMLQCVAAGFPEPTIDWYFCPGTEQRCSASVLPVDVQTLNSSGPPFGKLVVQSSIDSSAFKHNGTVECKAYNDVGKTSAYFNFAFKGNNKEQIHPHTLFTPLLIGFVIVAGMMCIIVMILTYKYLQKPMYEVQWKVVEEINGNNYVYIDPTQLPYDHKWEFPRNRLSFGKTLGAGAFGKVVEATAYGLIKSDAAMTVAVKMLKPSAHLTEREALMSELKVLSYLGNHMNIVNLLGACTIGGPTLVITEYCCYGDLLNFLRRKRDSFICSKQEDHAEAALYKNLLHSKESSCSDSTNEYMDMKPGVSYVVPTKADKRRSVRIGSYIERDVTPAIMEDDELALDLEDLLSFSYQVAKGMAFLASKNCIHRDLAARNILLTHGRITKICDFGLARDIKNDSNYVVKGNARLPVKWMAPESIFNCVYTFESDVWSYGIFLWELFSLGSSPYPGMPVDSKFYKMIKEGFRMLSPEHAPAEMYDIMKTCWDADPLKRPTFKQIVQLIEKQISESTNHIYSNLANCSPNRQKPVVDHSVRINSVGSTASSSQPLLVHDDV
Summary of the method: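 Phospho-c-kit ELISA: plate-bound PY-20 anti-phosphotyrosine captures lysate, anti-c-kit plus peroxidase-labelled secondary antibody detect, read at 450 nm. Lysates come from 20 hr-arrested MO7e cells given compound for 1 hr before a 5 min 50 ng/ml h-SCF stimulus.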

[1] = figure within parentheses in −( ) or >1000( )

Compound: COc1cc2nccc(Oc3cc(C)c(NC(=S)NCCN(C)C)cc3C)c2cc1OC [Example 538, N-{4-[(6,7-Dimethoxy-4-quinolyl)oxy]-2,5-dimethylphenyl}-N′-(2-dimethylaminoethyl)thiourea]
- IC50 (PDGF-Ra): > 100 nM
- inhibition at 0.1 µM (PDGF-Ra): 22%
- IC50 (c-kit; 50 ng/ml h-SCF): 768 nM

Compound: COc1cc2ncnc(Oc3ccc(NC(=O)OC(C)c4ccccc4F)c(Cl)c3)c2cc1OC (stereo not shown) [Example 126, 1-(2-Fluorophenyl)ethyl N-{2-chloro-4-[(6,7-dimethoxy-4-quinazolinyl)oxy]phenyl}carbamate]
- IC50 (PDGF-Ra; Pharmacological Test Example 1): 19 nM
- inhibition at 1 µM (c-kit; figure in parentheses in −( )): 10%

Compound: CCCC(CCN1CCN(C)CC1)OC(=O)Nc1cc(C)c(Oc2ccnc3cc(OC)c(OC)cc23)cc1C (stereo not shown) [Example 450, 1-[2-(4-Methylpiperazino)ethyl]butyl N-{4-[(6,7-dimethoxy-4-quinolyl)oxy]-2,5-dimethylphenyl}carbamate]
- IC50 (PDGF-Ra): > 100 nM
- inhibition at 0.1 µM (PDGF-Ra): 13%
- inhibition at 1 µM (c-kit; [1]): 46%

Compound: COc1cc2nccc(Oc3ccc(NC(=O)OC4CCCN(C)C4)c(C)c3C)c2cc1OC (stereo not shown) [Example 464, 1-Methyl-3-piperidyl N-{4-[(6,7-dimethoxy-4-quinolyl)oxy]-2,3-dimethylphenyl}carbamate]
- IC50 (PDGF-Ra): 55 nM
- IC50 (c-kit; 50 ng/ml h-SCF): 201 nM

Compound: COc1cc2nccc(Oc3ccc(NC(=S)NC(=O)CCc4ccccc4C)cc3)c2cc1OC [Example 731, N-{4-[(6,7-Dimethoxy-4-quinolyl)oxy]phenyl}-N′-[3-(2-methylphenyl)propanoyl]thiourea]
- IC50 (PDGF-Ra): 17 nM
- IC50 (c-kit; 50 ng/ml h-SCF): 259 nM

Compound: COc1cc2nccc(Oc3ccc(NC(=O)NN4CCCCC4)cc3)c2cc1OC [Example 592, N-{4-[(6,7-Dimethoxy-4-quinolyl)oxy]phenyl}-N′-(1-piperidinyl)urea]
- IC50 (PDGF-Ra): 23 nM
- IC50 (c-kit; 50 ng/ml h-SCF): 472 nM

Compound: COc1cc2ncnc(Oc3ccc(NC(=O)OCc4ccc(C(F)(F)F)cc4)c(Cl)c3)c2cc1OC [Example 25, 4-(Trifluoromethyl)benzyl N-{2-chloro-4-[(6,7-dimethoxy-4-quinazolinyl)oxy]phenyl}carbamate]
- IC50 (PDGF-Ra; Pharmacological Test Example 1): < 10 nM
- IC50 (c-kit; h-SCF 50 ng/ml): 566 nM

Compound: CCCC(CCC)OC(=O)Nc1ccc(Oc2ccnc3cc(OC)c(OC)cc23)cc1 [Example 332, 1-Propylbutyl N-{4-[(6,7-dimethoxy-4-quinolyl)oxy]phenyl}carbamate]
- IC50 (PDGF-Ra; Pharmacological Test Example 1): < 10 nM
- IC50 (c-kit; h-SCF 50 ng/ml): 259 nM

Compound: COc1cc2nccc(Oc3cc(C)c(NC(=O)OC(C)c4cccc(F)c4)cc3C)c2cc1OC (stereo not shown) [Example 99, 1-(3-Fluorophenyl)ethyl N-{4-[(6,7-dimethoxy-4-quinolyl)oxy]-2,5-dimethylphenyl}carbamate]
- IC50 (PDGF-Ra; Pharmacological Test Example 1): 21 nM
- IC50 (c-kit; h-SCF 50 ng/ml): 394 nM

Compound: COc1cc2nccc(Oc3ccc(NC(=O)OCCCc4ccccc4)cc3)c2cc1OC [Example 376, 3-Phenylpropyl N-{4-[(6,7-dimethoxy-4-quinolyl)oxy]phenyl}carbamate]
- IC50 (PDGF-Ra; Pharmacological Test Example 1): < 10 nM
- IC50 (c-kit; h-SCF 50 ng/ml): 41 nM

Compound: COc1cc2nccc(Oc3ccc(NC(=O)NCCN4CCOCC4)c(C)c3C)c2cc1OC [Example 617, N-{4-[(6,7-Dimethoxy-4-quinolyl)oxy]-2,3-dimethylphenyl}-N′-(2-morpholinoethyl)urea]
- IC50 (PDGF-Ra): < 10 nM
- IC50 (c-kit; 50 ng/ml h-SCF): 172 nM

The remaining lines, values ahead:

- IC50 (PDGF-Ra; Pharmacological Test Example 1): 12 nM
- IC50 (c-kit; h-SCF 50 ng/ml): 467 nM
Compound: CCCCC(CC)OC(=O)Nc1cc(C)c(Oc2ccnc3cc(OC)c(OC)cc23)cc1C (stereo not shown) [Example 330, 1-Ethylpentyl N-{4-[(6,7-dimethoxy-4-quinolyl)oxy]-2,5-dimethylphenyl}carbamate]

- IC50 (PDGF-Ra): < 10 nM
- IC50 (c-kit; h-SCF stimulation): 239 nM
Compound: COc1cc2nccc(Oc3ccc(NC(=S)NC(=O)CCSC)cc3)c2cc1OC [Example 1135, N-{4-[(6,7-Dimethoxy-4-quinolyl)oxy]phenyl}-N′-[3-(methylsulphenyl)propanoyl]thiourea]

- IC50 (PDGF-Ra): > 100 nM
- inhibition at 0.1 µM (PDGF-Ra): 34%
- inhibition at 1 µM (c-kit; [1]): 17%
Compound: COc1cc2ncnc(Oc3ccc(NC(=S)NC(=O)Cc4ccc5ccccc5c4)cc3)c2cc1OC [Example 711, N-{4-[(6,7-Dimethoxy-4-quinazolinyl)oxy]phenyl}-N′-[2-(2-naphthyl)acetyl]thiourea]

- IC50 (PDGF-Ra; Pharmacological Test Example 1): < 10 nM
- IC50 (c-kit; h-SCF 50 ng/ml): 62 nM
Compound: COc1cc2nccc(Oc3ccc(NC(=O)OCc4ccc(F)cc4)cc3)c2cc1OC [Example 8, 4-Fluorobenzyl N-{4-[(6,7-dimethoxy-4-quinolyl)oxy]phenyl}carbamate]

- IC50 (PDGF-Ra; Pharmacological Test Example 1): 19 nM
- IC50 (c-kit; h-SCF 50 ng/ml): 226 nM
Compound: COc1cc2nccc(Oc3cc(C)c(NC(=O)OCC4CCCC4)cc3C)c2cc1OC [Example 395, Cyclopentylmethyl N-{4-[(6,7-dimethoxy-4-quinolyl)oxy]-2,5-dimethylphenyl}carbamate]

- IC50 (PDGF-Ra): 21 nM
- IC50 (c-kit; h-SCF stimulation): 243 nM
Compound: COc1cc2nccc(Oc3ccc(NC(=S)NC(=O)c4cc(Cl)cc(Cl)c4)cc3)c2cc1OC [Example 1009, N-(3,5-Dichlorobenzoyl)-N′-{4-[(6,7-dimethoxy-4-quinolyl)oxy]phenyl}thiourea]

- IC50 (PDGF-Ra): 36 nM
- IC50 (c-kit; 50 ng/ml h-SCF): 223 nM
Compound: COc1cc(Oc2ncnc3cc(OC)c(OC)cc23)ccc1NC(=O)NCCN1CCCC1 [Example 632, N-{4-[(6,7-Dimethoxy-4-quinazolinyl)oxy]-2-methoxyphenyl}-N′-(2-tetrahydro-1H-1-pyrrolylethyl)urea]

- IC50 (PDGF-Ra): 20 nM
- IC50 (c-kit; h-SCF stimulation): 48 nM
Compound: COc1cc2nccc(Oc3ccc(NCCOc4ccc(C)cc4)cc3C)c2cc1OC [Example 879, N-{4-[(6,7-Dimethoxy-4-quinolyl)oxy]-3-methylphenyl}-N-[2-(4-methylphenoxy)ethyl]amine]

- IC50 (PDGF-Ra): 35 nM
- inhibition at 1 µM (c-kit; figure in parentheses in −( )): 26%
Compound: COc1cc2ncnc(Oc3ccc(NC(=S)NC(=O)C4CC4)cc3)c2cc1OC [Example 1181, N-Cyclopropylcarbonyl-N′-{4-[(6,7-dimethoxy-4-quinazolinyl)oxy]phenyl}thiourea]

- IC50 (PDGF-Ra; Pharmacological Test Example 1): 91 nM
- IC50 (c-kit; h-SCF 50 ng/ml): 715 nM
Compound: 4-(Dimethylamino)butyl N-{4-[(6,7-dimethoxy-4-quinazolinyl)oxy]phenyl}carbamate [Example 194]

- IC50 (PDGF-Ra): 67 nM
- inhibition at 1 µM (c-kit; [1]): 16%
Compound: COc1cc2ncnc(Oc3ccc(NC(=O)NC4CCN(CC5CCCCC5)C4)c([N+](=O)[O-])c3)c2cc1OC (stereo not shown) [Example 587, N-[1-(Cyclohexylmethyl)tetrahydro-1H-3-pyrrolyl]-N′-{4-[(6,7-dimethoxy-4-quinazolinyl)oxy]-2-nitrophenyl}urea]

- IC50 (PDGF-Ra): 36 nM
- IC50 (c-kit; 50 ng/ml h-SCF): 224 nM
Compound: COc1cc2nccc(Oc3cc(C)c(NC(=O)NCCN4CCOCC4)cc3C)c2cc1OC [Example 616, N-{4-[(6,7-Dimethoxy-4-quinolyl)oxy]-2,5-dimethylphenyl}-N′-(2-morpholinoethyl)urea]

- IC50 (PDGF-Ra): 29 nM
- IC50 (c-kit; 50 ng/ml h-SCF): 554 nM
Compound: COc1cc(Oc2ccnc3cc(OC)c(OC)cc23)ccc1NC(=O)NC1CCN(Cc2ccccc2)CC1 [Example 607, N-{4-[(6,7-Dimethoxy-4-quinolyl)oxy]-2-methoxyphenyl}-N′-[4-(N-benzyl)piperidinyl]urea]

- IC50 (PDGF-Ra): 35 nM
- IC50 (c-kit; 50 ng/ml h-SCF): 570 nM
Compound: COc1cc(Oc2ncnc3cc(OC)c(OC)cc23)ccc1NC(=O)NCCN1CCCCC1 [Example 680, N-{4-[(6,7-Dimethoxy-4-quinazolinyl)oxy]-2-methoxyphenyl}-N′-(2-piperidinoethyl)urea]

- IC50 (PDGF-Ra): < 10 nM
- IC50 (c-kit; h-SCF stimulation): 289 nM
Compound: CCCCC(C)C(=O)NC(=S)Nc1ccc(Oc2ccnc3cc(OC)c(OC)cc23)cc1 (stereo not shown) [Example 1074, N-{4-[(6,7-Dimethoxy-4-quinolyl)oxy]phenyl}-N′-(2-methylhexanoyl)thiourea]
